# Reference: ChEMBL document CHEMBL5506032, “Discovery of 2,6-Naphthyridine Analogues as Selective FGFR4 Inhibitors for Hepatocellular Carcinoma” (J Med Chem, 2024)
# Active and inactive are the calls of the source. The rule behind the calls is not given here.
# Assays:
# Huh-7 [1] = assay: Antiproliferative activity against FGFR4 overexpressing human Huh-7 cells assessed as inhibition of cell growth by SRB assay
# [2] = target: T1, Fibroblast growth factor receptor 1 (Homo sapiens, UniProt P11362); assay: Inhibition of FGFR1 (unknown origin) by Z'-LYTE kinase assay
# Target sequence in this assay (P11362 whole entry): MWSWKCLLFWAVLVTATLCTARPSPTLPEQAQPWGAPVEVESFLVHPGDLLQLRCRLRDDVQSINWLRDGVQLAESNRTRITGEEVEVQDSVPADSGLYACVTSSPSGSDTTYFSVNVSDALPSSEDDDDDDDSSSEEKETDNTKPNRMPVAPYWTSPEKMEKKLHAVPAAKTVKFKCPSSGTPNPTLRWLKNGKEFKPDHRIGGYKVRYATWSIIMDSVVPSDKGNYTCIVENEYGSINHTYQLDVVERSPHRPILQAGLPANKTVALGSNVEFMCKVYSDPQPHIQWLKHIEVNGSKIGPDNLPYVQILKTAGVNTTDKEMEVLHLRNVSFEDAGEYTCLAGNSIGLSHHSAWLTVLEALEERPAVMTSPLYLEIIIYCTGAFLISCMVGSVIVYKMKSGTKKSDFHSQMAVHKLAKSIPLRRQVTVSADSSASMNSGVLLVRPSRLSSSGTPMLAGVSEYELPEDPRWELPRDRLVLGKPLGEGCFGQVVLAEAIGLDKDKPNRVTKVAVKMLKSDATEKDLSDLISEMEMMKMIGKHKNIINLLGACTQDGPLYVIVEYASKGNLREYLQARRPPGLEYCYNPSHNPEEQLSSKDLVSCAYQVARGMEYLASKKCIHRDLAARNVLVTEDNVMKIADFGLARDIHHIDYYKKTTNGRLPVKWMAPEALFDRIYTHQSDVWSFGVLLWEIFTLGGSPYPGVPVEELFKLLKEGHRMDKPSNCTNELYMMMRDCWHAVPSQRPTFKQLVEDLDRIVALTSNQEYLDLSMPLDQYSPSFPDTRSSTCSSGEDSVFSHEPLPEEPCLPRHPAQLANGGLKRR
# Hep 3B2 [3] = assay: Antiproliferative activity against FGF19 amplified human Hep3B cells assessed as inhibition of cell growth by SRB assay
# [4] = target: Fibroblast growth factor receptor 3 (Homo sapiens, UniProt P22607); assay: Inhibition of FGFR3 (unknown origin) by Z'-LYTE kinase assay
# Chain of Fibroblast growth factor receptor 3 (P22607 whole entry): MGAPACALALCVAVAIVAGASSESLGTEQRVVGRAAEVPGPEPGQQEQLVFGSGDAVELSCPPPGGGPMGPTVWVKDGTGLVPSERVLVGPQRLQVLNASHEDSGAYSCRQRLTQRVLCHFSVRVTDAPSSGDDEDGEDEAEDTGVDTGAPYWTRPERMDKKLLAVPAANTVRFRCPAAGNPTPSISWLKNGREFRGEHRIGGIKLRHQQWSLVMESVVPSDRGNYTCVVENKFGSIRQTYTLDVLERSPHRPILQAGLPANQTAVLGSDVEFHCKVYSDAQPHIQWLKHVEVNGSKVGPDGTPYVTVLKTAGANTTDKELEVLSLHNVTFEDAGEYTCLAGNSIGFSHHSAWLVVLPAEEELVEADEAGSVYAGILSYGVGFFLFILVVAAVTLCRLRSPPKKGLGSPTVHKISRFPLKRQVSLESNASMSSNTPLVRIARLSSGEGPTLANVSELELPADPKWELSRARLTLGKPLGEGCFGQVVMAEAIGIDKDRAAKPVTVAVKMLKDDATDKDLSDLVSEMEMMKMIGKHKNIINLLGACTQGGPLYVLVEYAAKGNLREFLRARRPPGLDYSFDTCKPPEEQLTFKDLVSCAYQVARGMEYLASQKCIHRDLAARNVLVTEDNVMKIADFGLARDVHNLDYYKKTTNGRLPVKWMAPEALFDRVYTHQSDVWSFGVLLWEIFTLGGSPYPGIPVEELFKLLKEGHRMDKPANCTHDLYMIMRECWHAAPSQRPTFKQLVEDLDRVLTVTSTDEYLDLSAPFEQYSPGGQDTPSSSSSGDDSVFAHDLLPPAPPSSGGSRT
# [5] = Antiproliferative activity against FGF19 amplified human JHH7 cells assessed as inhibition of cell growth by SRB assay
# Huh-7 [6] = assay: Antitumor activity against human Huh-7 cells xenografted in female BALB/c nude mouse assessed as reduction in tumor volume at 100 mg/kg, po administered twice daily for 15 days; format: functional, organism-based; settings: time 15.0 day
# [7] = Toxicity in female BALB/c nude mouse xenografted with human Huh-7 cells assessed as effect on body weight at 100 mg/kg, po administered twice daily for 15 days; format: organism-based; settings: in vivo, 360 h, time 15 day
# [8] = Toxicity in female BALB/c nude mouse xenografted with human Huh-7 cells assessed as clinical signs at 100 mg/kg, po administered twice daily for 15 days; format: organism-based; settings: in vivo, 360 h, time 15 day
# [9] = target: T2, Fibroblast growth factor receptor 2 (Homo sapiens, UniProt P21802); assay: Inhibition of FGFR2 (unknown origin) by Z'-LYTE kinase assay
# Target sequence in this assay (P21802 whole entry): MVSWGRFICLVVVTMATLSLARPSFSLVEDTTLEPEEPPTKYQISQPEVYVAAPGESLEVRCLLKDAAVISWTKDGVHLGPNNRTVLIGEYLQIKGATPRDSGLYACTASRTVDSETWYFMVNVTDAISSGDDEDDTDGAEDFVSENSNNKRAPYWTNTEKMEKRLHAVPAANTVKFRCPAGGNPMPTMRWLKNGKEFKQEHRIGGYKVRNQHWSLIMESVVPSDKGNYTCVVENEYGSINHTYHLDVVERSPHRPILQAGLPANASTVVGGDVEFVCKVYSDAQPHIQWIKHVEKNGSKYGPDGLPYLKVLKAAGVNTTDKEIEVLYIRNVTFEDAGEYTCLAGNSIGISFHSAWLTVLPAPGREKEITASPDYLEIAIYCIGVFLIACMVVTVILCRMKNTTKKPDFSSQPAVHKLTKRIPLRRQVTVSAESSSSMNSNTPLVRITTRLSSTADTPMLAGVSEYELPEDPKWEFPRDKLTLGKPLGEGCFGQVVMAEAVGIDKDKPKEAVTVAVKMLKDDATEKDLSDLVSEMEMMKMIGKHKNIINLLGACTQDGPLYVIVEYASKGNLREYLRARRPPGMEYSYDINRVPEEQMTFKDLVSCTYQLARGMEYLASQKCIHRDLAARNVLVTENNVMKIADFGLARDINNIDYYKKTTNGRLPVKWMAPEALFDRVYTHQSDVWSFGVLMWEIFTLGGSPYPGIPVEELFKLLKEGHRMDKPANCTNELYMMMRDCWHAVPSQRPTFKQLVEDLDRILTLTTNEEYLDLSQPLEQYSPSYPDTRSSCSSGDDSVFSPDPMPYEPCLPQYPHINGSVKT
# [10] = target: Fibroblast growth factor receptor 4 (Homo sapiens, UniProt P22455); assay: Inhibition of FGFR4 (unknown origin) by Z'-LYTE kinase assay
# Chain of Fibroblast growth factor receptor 4 (P22455 whole entry): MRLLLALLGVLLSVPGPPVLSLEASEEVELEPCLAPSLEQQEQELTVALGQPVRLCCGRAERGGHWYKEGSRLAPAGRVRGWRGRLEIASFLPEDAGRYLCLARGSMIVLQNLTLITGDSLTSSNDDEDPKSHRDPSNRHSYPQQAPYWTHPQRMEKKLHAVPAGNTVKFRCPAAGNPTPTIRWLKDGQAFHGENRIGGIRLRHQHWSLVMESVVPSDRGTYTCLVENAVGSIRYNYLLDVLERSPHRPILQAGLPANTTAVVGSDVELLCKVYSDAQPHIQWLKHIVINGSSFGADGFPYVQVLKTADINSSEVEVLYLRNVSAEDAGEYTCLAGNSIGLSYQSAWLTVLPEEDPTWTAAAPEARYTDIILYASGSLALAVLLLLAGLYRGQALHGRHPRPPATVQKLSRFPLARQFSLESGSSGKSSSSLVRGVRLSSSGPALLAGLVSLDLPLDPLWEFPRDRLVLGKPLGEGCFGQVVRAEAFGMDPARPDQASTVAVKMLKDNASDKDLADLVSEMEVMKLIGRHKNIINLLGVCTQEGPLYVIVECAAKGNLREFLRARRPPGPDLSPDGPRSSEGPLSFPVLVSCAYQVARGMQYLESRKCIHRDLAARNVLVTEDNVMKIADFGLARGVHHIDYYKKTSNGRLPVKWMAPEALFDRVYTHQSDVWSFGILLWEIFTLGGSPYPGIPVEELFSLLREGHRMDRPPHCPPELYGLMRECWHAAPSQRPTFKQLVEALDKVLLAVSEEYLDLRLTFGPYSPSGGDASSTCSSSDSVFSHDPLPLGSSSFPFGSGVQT
# RT-112 = assay: Growth inhibition of FGFR3 overexpressing human RT-112 cells by SRB assay; format: functional
# PLC-PRF-5 = assay: Growth inhibition of human PLCPRF5 cells by SRB assay; format: functional
# [11] = target: T2, Fibroblast growth factor receptor 2; assay: Inhibition of FGFR2 (unknown origin) at 1 uM relative to control
# Target sequence in this assay (P21802 22-821 limits assumed): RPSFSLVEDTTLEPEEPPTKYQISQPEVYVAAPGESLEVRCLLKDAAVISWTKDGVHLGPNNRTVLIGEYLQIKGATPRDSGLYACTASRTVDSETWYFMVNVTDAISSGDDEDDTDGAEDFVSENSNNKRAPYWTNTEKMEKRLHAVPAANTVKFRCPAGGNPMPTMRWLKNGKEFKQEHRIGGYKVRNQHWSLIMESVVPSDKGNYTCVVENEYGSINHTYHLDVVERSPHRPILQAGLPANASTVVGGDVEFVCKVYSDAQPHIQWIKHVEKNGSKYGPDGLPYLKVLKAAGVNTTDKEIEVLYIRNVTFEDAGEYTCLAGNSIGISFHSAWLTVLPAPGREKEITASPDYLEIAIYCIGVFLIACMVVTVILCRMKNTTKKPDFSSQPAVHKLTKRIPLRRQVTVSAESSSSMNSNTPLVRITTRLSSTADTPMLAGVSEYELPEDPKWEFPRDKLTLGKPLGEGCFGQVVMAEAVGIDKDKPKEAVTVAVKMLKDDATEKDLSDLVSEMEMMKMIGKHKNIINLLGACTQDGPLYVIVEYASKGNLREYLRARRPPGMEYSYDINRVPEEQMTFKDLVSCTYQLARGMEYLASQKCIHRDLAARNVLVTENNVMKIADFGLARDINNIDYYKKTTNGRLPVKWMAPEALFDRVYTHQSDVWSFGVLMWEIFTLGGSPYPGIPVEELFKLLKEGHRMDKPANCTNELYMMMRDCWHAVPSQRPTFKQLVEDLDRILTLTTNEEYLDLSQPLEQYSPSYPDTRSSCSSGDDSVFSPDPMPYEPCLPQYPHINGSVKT
# [12] = Cmax in ICR mouse at 50 mg/kg, po measured after 24 hrs by LC-MS/MS analysis; format: ADME, organism-based; settings: in vivo
# [13] = Tmax in ICR mouse at 200 mg/kg, po measured after 48 hrs by LC-MS/MS analysis; format: ADME, organism-based; settings: in vivo
# Hep 3B-Luc [14] = assay: Antitumor activity against human Hep 3B-Luc cells xenografted in female BALB/c nude mouse assessed as reduction in liver tumor volume at 100 mg/kg, po administered once daily for 7 weeks and measured after 119 days by bioluminescence imaging; format: functional, organism-based; settings: time 119.0 day
# Huh-7 [15] = assay: Growth inhibition of FGF19 amplified and FGFR4 overexpressing human Huh-7 cells by SRB assay; format: functional
# [16] = Oral bioavailability in ICR mouse at 200 mg/kg measured after 48 hrs by LC-MS/MS analysis; format: ADME, organism-based; settings: in vivo
# [17] = Oral bioavailability in ICR mouse at 100 mg/kg measured after 24 hrs by LC-MS/MS analysis; format: ADME, organism-based; settings: in vivo
# [18] = Half-life in ICR mouse at 50 mg/kg, po measured after 24 hrs by LC-MS/MS analysis; format: ADME, organism-based; settings: in vivo
# [19] = Tmax in ICR mouse at 50 mg/kg, po measured after 24 hrs by LC-MS/MS analysis; format: ADME, organism-based; settings: in vivo
# Hep 3B2 [20] = assay: Antitumor activity against human Hep3B cells xenografted in female BALB/c nude ectopic mouse assessed as reduction in tumor volume at 100 mg/kg, po administered twice daily for 15 days; format: functional, organism-based; settings: time 15.0 day
# [21] = Cmax in ICR mouse at 5 mg/kg, iv by LC-MS/MS analysis; format: ADME, organism-based; settings: in vivo
# [22] = Half-life in ICR mouse at 100 mg/kg, po measured after 24 hrs by LC-MS/MS analysis; format: ADME, organism-based; settings: in vivo
# Hep 3B2 [23] = assay: Growth inhibition of FGF19 amplified and FGFR4 overexpressing human Hep3B cells by SRB assay; format: functional
# SNU-387 = assay: Growth inhibition of human SNU-387 cells by SRB assay; format: functional
# [24] = Tmax in ICR mouse at 100 mg/kg, po measured after 24 hrs by LC-MS/MS analysis; format: ADME, organism-based; settings: in vivo
# [25] = Half-life in ICR mouse at 200 mg/kg, po measured after 48 hrs by LC-MS/MS analysis; format: ADME, organism-based; settings: in vivo
# [26] = AUC (0 to 24 hrs) in ICR mouse at 200 mg/kg, po measured after 48 hrs by LC-MS/MS analysis; format: ADME, organism-based; settings: in vivo
# Hep 3B-Luc [27] = assay: Antitumor activity against human Hep 3B-Luc cells xenografted in female BALB/c nude mouse assessed as reduction in liver tumor volume at 100 mg/kg, po administered once daily for 7 weeks and measured within 35 days by bioluminescence imaging; format: functional, organism-based; settings: time <= 35.0 day
# [28] = Oral bioavailability in ICR mouse at 50 mg/kg measured after 24 hrs by LC-MS/MS analysis; format: ADME, organism-based; settings: in vivo
# [29] = Cmax in ICR mouse at 100 mg/kg, po measured after 24 hrs by LC-MS/MS analysis; format: ADME, organism-based; settings: in vivo
# [30] = target: T1, Fibroblast growth factor receptor 1; assay: Inhibition of FGFR1 (unknown origin) at 1 uM relative to control
# Target sequence in this assay (P11362 22-822 limits assumed): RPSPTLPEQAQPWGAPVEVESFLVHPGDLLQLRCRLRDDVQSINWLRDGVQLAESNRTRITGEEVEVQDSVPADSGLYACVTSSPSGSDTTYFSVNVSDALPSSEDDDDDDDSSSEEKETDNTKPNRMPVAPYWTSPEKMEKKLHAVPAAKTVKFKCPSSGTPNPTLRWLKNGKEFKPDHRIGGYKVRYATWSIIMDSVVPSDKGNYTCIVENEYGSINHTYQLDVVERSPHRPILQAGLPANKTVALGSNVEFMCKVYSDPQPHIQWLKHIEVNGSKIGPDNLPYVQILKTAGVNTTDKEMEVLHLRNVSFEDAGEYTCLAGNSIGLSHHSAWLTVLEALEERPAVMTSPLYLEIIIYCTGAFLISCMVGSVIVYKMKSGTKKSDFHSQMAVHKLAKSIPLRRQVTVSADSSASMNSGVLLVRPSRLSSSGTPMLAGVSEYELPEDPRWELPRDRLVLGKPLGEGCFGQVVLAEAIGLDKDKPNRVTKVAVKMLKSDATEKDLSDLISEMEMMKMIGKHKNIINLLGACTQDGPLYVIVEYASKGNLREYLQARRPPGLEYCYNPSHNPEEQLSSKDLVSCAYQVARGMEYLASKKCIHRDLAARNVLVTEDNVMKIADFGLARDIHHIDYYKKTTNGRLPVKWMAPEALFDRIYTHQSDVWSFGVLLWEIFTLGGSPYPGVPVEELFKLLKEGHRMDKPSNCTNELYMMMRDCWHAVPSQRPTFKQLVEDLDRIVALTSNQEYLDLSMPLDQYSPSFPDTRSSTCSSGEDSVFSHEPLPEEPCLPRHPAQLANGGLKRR
# HepG2 = assay: Growth inhibition of human HepG2 cells by SRB assay; format: functional
# [31] = Half-life in ICR mouse at 5 mg/kg, iv by LC-MS/MS analysis; format: ADME, organism-based; settings: in vivo
# [32] = Growth inhibition of human HS27 cells by SRB assay; format: toxicity, cell-based
# [33] = AUC (0 to 24 hrs) in ICR mouse at 100 mg/kg, po measured after 24 hrs by LC-MS/MS analysis; format: ADME, organism-based; settings: in vivo
# [34] = AUC (0 to 24 hrs) in ICR mouse at 50 mg/kg, po measured after 24 hrs by LC-MS/MS analysis; format: ADME, organism-based; settings: in vivo
# [35] = Growth inhibition of FGF19 amplified and FGFR4 overexpressing human JHH7 cells by SRB assay; format: functional
# [36] = AUC (0 to 24 hrs) in ICR mouse at 5 mg/kg, iv by LC-MS/MS analysis; format: ADME, organism-based; settings: in vivo
# [37] = Cmax in ICR mouse at 200 mg/kg, po measured after 48 hrs by LC-MS/MS analysis; format: ADME, organism-based; settings: in vivo
# [38] = Antitumor activity against human Hep 3B-Luc cells xenografted in female BALB/c nude mouse assessed as survival at 100 mg/kg, po administered once daily for 7 weeks and measured after 119 days relative to control; format: functional; settings: 2856 h, time 119 day
compound,measurement,setting,value
C=CC(=O)Nc1ccccc1Nc1cc2cnc(-c3c(F)c(OC)cc(OC)c3F)cc2cn1,IC50,Huh-7 [1],25 nM
C=CC(=O)Nc1cccc(C)c1Nc1cc2cnc(-c3c(Cl)c(OC)cc(OC)c3Cl)cc2cn1,IC50,Huh-7 [1],212 nM
C=CC(=O)Nc1ccccc1Nc1cc2c(C3CC3)nc(-c3c(Cl)c(OC)cc(OC)c3Cl)cc2cn1,IC50,Huh-7 [1],67 nM
C=CC(=O)Nc1ccccc1Nc1cc2c(-c3cnn(C)c3)nc(-c3c(Cl)c(OC)cc(OC)c3Cl)cc2cn1,IC50,Huh-7 [1],50 nM
C=CC(=O)Nc1cc(C)ccc1Nc1cc2cnc(-c3c(Cl)c(OC)cc(OC)c3Cl)cc2cn1,IC50,Huh-7 [1],125 nM
C=CC(=O)Nc1cccc(F)c1Nc1cc2cnc(-c3c(F)c(OC)cc(OC)c3F)cc2cn1,IC50,Huh-7 [1],140 nM
C=CC(=O)Nc1ccc(C)cc1Nc1cc2cnc(-c3c(Cl)c(OC)cc(OC)c3Cl)cc2cn1,IC50,Huh-7 [1],37 nM
C=CC(=O)Nc1ccccc1Nc1cc2c(-c3ccc[nH]3)nc(-c3c(Cl)c(OC)cc(OC)c3Cl)cc2cn1,IC50,Huh-7 [1],61 nM
C=CC(=O)N[C@H]1CCOC[C@H]1Nc1ncc2cc(-c3c(Cl)c(OC)cc(OC)c3Cl)ccc2n1 [FISOGATINIB],IC50,[2],1840 nM
same,IC50,Hep 3B2 [3],122 nM
same,IC50,[4],> 10000 nM
same,IC50,[5],161 nM
same,Activity,Huh-7 [6],Active
same,Activity,[7],Non-Toxic
same,Activity,[8],Non-Toxic
same,IC50,[9],2500 nM
same,IC50,Huh-7 [1],81 nM
same,IC50,[10],53 nM
C=CC(=O)Nc1ccccc1Nc1cc2c(CC)nc(-c3c(Cl)c(OC)cc(OC)c3Cl)cc2cn1,IC50,Huh-7 [1],36 nM
C=CC(=O)Nc1ccc(N2CCN(CC)CC2)c(F)c1Nc1cc2cnc(-c3c(F)c(OC)cc(OC)c3F)cc2cn1,IC50,Huh-7 [1],137 nM
C=CC(=O)Nc1ccccc1Nc1cc2c(-c3ccco3)nc(-c3c(Cl)c(OC)cc(OC)c3Cl)cc2cn1,IC50,Huh-7 [1],110 nM
C=CC(=O)Nc1cc2c(cc1Nc1cc3cnc(-c4c(Cl)c(OC)cc(OC)c4Cl)cc3cn1)CCC2,IC50,Huh-7 [1],113 nM
C=CC(=O)Nc1ccccc1Nc1cc2c(-c3cccnc3)nc(-c3c(Cl)c(OC)cc(OC)c3Cl)cc2cn1,IC50,Huh-7 [1],68 nM
C=CC(=O)Nc1ccccc1Nc1cc2c(-c3ccccc3)nc(-c3c(Cl)c(OC)cc(OC)c3Cl)cc2cn1,IC50,Huh-7 [1],69 nM
C=CC(=O)Nc1cc(N2CCOCC2)ccc1Nc1cc2cnc(-c3c(Cl)c(OC)cc(OC)c3Cl)cc2cn1,IC50,Huh-7 [1],80 nM
C=CC(=O)Nc1cccc(C)c1Nc1ncc2cc(-c3c(Cl)c(OC)cc(OC)c3Cl)ccc2n1,IC50,Huh-7 [1],191 nM
C=CC(=O)Nc1cccc(F)c1Nc1cc2cnc(-c3c(Cl)c(OC)cc(OC)c3Cl)cc2cn1,IC50,Huh-7 [1],220 nM
C=CC(=O)Nc1ccccc1Nc1cc2cnc(-c3c(Cl)c(OC)cc(OC)c3Cl)cc2cn1,IC50,[2],506 nM
same,IC50,[4],4630 nM
same,IC50,[9],281 nM
same,IC50,Huh-7 [1],23 nM
C=CC(=O)Nc1ccccc1Nc1cc2c(C)nc(-c3c(Cl)c(OC)cc(OC)c3Cl)cc2cn1,GI50,RT-112,151 nM
same,GI50,PLC-PRF-5,598 nM
same,inhibition,[11],> 85%
same,Cmax,[12],11200 ng/mL
same,IC50,[2],1260 nM
same,Tmax,[13],1 h
same,IC50,Hep 3B2 [3],16 nM
same,Activity,Hep 3B-Luc [14],Active
same,IC50,[4],> 10000 nM
same,GI50,Huh-7 [15],16 nM
same,bioavailability,[16],53.2%
same,bioavailability,[17],61.9%
same,half-life,[18],4.4 h
same,IC50,[5],33 nM
same,Tmax,[19],1 h
same,Activity,Hep 3B2 [20],Active
same,Activity,Huh-7 [6],Active
same,Cmax,[21],8140 ng/mL
same,half-life,[22],3.9 h
same,Activity,[7],Non-Toxic
same,GI50,Hep 3B2 [23],16 nM
same,GI50,SNU-387,251 nM
same,Tmax,[24],0.5 h
same,half-life,[25],8.6 h
same,AUC(0-t) at 48 h,[26],102000 ng·h/mL
same,Activity,Hep 3B-Luc [27],Active
same,bioavailability,[28],56.8%
same,Cmax,[29],24600 ng/mL
same,inhibition,[30],> 85%
same,Activity,[8],Non-Toxic
same,GI50,HepG2,335 nM
same,half-life,[31],1.7 h
same,GI50,[32],913 nM
same,AUC(0-t) at 24 h,[33],59500 ng·h/mL
same,IC50,[9],3270 nM
same,AUC(0-t) at 24 h,[34],27300 ng·h/mL
same,GI50,[35],16 nM
same,AUC(0-t),[36],4810 ng·h/mL
same,Cmax,[37],40700 ng/mL
same,survival at 100 mg/kg,[38],> 90%
same,IC50,Huh-7 [1],19 nM
